# Reference: a melting point compilation (Tetko et al.; mined from patent text by program, amines drawn as free bases though some values may be those of a salt)
row,SMILES,melting point [°C]
1,COc1cc(C(C#N)O[Si](C)(C)C(C)(C)C)cc(OC)c1OC (centres undefined),43
2,Cn1c(NC(=N)N)nc2ccccc21,178 to 179
3,Clc1ccc(-c2c[nH]nc2-c2ccncc2)cc1,204 to 207
4,CCOCc1nc2c(N)nc3cc(Br)cnc3c2n1CCCON=C(C)C,128 to 130
5,CNC(=O)C1=CC(CF)(CF)Oc2ccc(C(F)(F)F)cc21,162 to 164
6,COc1ccc(-c2nc(Sc3ccc(C)cc3)n(Cc3ccccc3)c2-c2ccc(OC)cc2)cc1,115 to 117
7,O=C(OCP(=O)(C1CCCCC1)C1CCCCC1)c1ccc(C(=O)OCP(=O)(C2CCCCC2)C2CCCCC2)cc1,226 to 228
8,CC(C)(c1ccccc1)c1ccc(N)c(S(=O)(=O)O)c1,263 to 265
9,NC(=O)Cn1c(=O)ccc2cc(Br)ccc21,257 to 258
10,CC(C)(C)OC(=O)CCOCCCc1ccnc(-c2nc(=O)c3ccccc3s2)c1,81.1 to 82.2
11,Cc1cc(-c2cc(CO)c(=O)n(Cc3ccc(Cl)cc3)n2)ccc1F,157 to 158
12,CNCC(=O)N1N=C(c2ccc(N)cc2)c2cc3c(cc2CC1C)OCO3 (centres undefined),198 to 200
13,CCCN1CC(=O)C(C(=O)OCC)C1=O (centres undefined),123 to 125
14,NC1=Nc2ccc(I)cc2C(c2ccccn2)=NC1,228 to 229
15,CCCOc1nsc(NC(=O)C(C)C)c1C(N)=O,153 to 154
16,O=C(NOCC(O)CN1CCCCC1)c1cccc2ccccc12 (centres undefined),104 to 107
17,CN1CCN(Cc2ccc(Cl)cc2Cl)C(C2=NCCN2)C1 (centres undefined),167 to 169
18,Cc1nnc2nc(-c3ccccc3)c3cc(Cl)ccc3n12,335 to 337
19,N#Cc1ncn2c1[C@@H]1CCN1C(=O)c1cc(Cl)ccc1-2,258 to 261
20,COC(=O)CC1CC(c2ccc(C#N)cc2F)=NO1 (centres undefined),92 to 94
21,O=C(O)c1ccc(NC(=O)[C@H](Cc2ccc(-c3ccccc3)cc2)NCP(=O)(O)O)cc1,270 to 274
22,O=C(O)Cc1c(C(=O)c2ccc(Cl)cc2)[nH]c2cc(Cl)ccc12,181 to 183
23,Cc1cc(-c2[nH]c3ccc(OCc4ccccc4)cc3c2C)cc(C)c1O,162
24,CC(=O)NCC1(N2CCCCC2)CCCCC1,104
25,O=C(NC1CCCCC1)ON1C(=O)CCC1=O,158 to 160

row,SMILES,melting point [°C]
1,CCn1nc2c(N)nc3ncccc3c2c1CC(C)(C)O,283 to 286
2,N=C(Nc1cccc(Cl)c1)Nc1nc(-c2ccccc2)cs1,134 to 135
3,CCCC(=O)Nc1n[nH]c2cc(-c3cccnc3)ccc12,205
4,CCCCN(CC(=O)O)S(=O)(=O)c1ccc(N2CCC(NC[C@H](O)c3ccc(O)c(NS(C)(=O)=O)c3)CC2)cc1,125 to 138
5,N#CC1C=Cc2ccccc2N1C(=O)c1ccccc1 (centres undefined),153 to 154
6,O=C1NC(=O)C(c2cn(CCCO)c3ccccc23)=C1c1ccccc1[N+](=O)[O-],193 to 195
7,COc1cc(Sc2cc(F)cc(C3(OC)CCOCC3)c2)ccc1/C(C)=N/O,155
8,CCOCCc1c(-c2ccc(OC)cc2)nc(N)n2ncnc12,176 to 177
9,O=C(O)CCCCc1nn(-c2ccccc2)c2c1CCC2,98 to 99
10,c1ccc2c(c1)nnn2CSCn1nnc2ccccc21,179 to 181
11,CCOC(=O)Nc1nc(CC(=O)OC)ns1,110 to 112
12,CCOc1ccc2nc(NC(=O)CN3CCN(C(=O)CCCCCCC(=O)N(O)C(C)=O)CC3)sc2c1,98 to 103
13,CCOC(=O)c1c(Cn2cnnc2)nc2cc(OC)c(OC)cc2c1-c1ccc(OC)c(OC(C)C)c1,170 to 171
14,CCOc1cc(-c2ccccc2)nc2nn(C)cc12,170 to 171
15,CCSc1ccc(-c2ccncc2)c2c1C(=O)CC(C)C2 (centres undefined),145 to 147
16,COC(=O)c1ccc(CN2CCN(c3nc(C)c(C(C)=O)s3)C2=O)cc1,174 to 175
17,Cc1ccc([N+](=O)[O-])c2[nH]ccc(=O)c12,219 to 225
18,O=C(NC1CCCCC1)NS(=O)(=O)c1ccc2c(c1)CCN(C(=O)N1CCCCC1)CC2,166 to 167
19,O=c1oc(-c2ccc(Cl)cc2)cc(O)c1SCCc1ccccc1,161 to 163
20,CC1(C)COC(c2ccccc2S(N)(=O)=O)=N1,142 to 146
21,Nc1ccc([N+](=O)[O-])cc1CO,141 to 142
22,CC(C)(C)O[C@@H]1C[C@@H](CO)N(S(=O)(=O)c2ccc3ccccc3c2)C1,124 to 125
23,O=C(C=Cc1cccc(F)c1F)c1cnc2sc3c(n12)CCCCC3,193 to 195
24,CN(C)C=C1CN=C(c2ccccc2Cl)c2cc(Cl)ccc2C1=O,170 to 171
25,COc1cc(C=O)ccc1OCc1nc(N2CCCCC2)sc1C,80 to 81

row,SMILES,melting point [°C]
1,Cc1cc(-c2ccc(O)nc2)cc(C=O)c1N,231 to 234
2,Cc1ccccc1C=C(C(=O)O)C(=O)O,197 to 200
3,CCCCCCCNC(=O)N(C)c1ccc(C)c(-c2ccc(C=CC(=O)O)cc2)c1,159
4,CSc1ccc([N+](=O)[O-])nc1,165 to 167
5,Cc1oc(-c2ccccc2)nc1CCC(=O)c1ccc(CCC2OCCO2)cc1,89 to 90
6,COc1ccc(C#Cc2ccc3c(Nc4cc(OC)c(Cl)cc4Cl)c(C#N)cnc3c2)cc1,225 to 226
7,Cc1cn(C2CC(O)C(C#N)(CO)O2)c(=O)[nH]c1=O (centres undefined),238 to 242
8,CCOC(=O)c1cnn(-c2ccc(Cl)cc2)c1C,55 to 56
9,CC(=O)OC1CSC(Oc2ccc(-c3cccnc3Cl)nc2)C(OC(C)=O)C1OC(C)=O (centres undefined),180
10,O=C(O)[C@@H](Cc1ccccc1)Oc1c(Br)cc(-c2c3ccccc3c(C(F)(F)F)c3sc4ccccc4c23)cc1Br,109 to 143
11,Cc1ccc(-c2c(CNC(=O)OC(C)(C)C)[nH]c(=O)c3ccc(C#N)cc23)cc1,156 to 157
12,CCN1c2ncccc2NC(=O)c2cc(CCc3ccccc3)cnc21,183 to 184
13,CC(C)c1cc(C=CC(=O)Nc2cccc(C(=O)O)c2)oc1C(C)C,220 to 222
14,CC(C)Nc1nc2c(F)c(F)c(F)cc2[nH]1,182 to 184
15,CC(=O)Nc1ncc(C23CCCN(CC2)C3)o1 (centres undefined),142 to 143
16,N#CC1(C2(O)CCCCC2)Cc2cc3occc3cc21 (centres undefined),154 to 158
17,CC(=O)Nc1cccc2c1S(=O)(=O)N=C2C1=C(O)C(C(C)(C)C)N(Cc2ccc(F)cc2)C1=O (centres undefined),164 to 167
18,CS(=O)(=O)c1ccc(C(CC2CCOCC2)c2ccc(-c3ccccn3)[nH]2)cn1 (centres undefined),89 to 90
19,O=C(Nc1ccc2c(c1)OC=C1CN(C(=O)OCc3ccccc3)C=CN12)OCc1ccccc1,118 to 120
20,CCOC(=O)c1c(C)cc2c(c1C)c(=O)n(-c1ccccc1Cl)c(=O)n2CC(=O)N1CCN(C)CC1,64 to 65
21,CC(C)=CCS(=O)(=O)c1ccc(C)cc1,71 to 72
22,Fc1ccc(C23COC(c4ccc(Cl)cc4)(OC2)OC3)cc1,251 to 252
23,O=C1C2CC3CC1CC(OCc1ccc(-c4nc5ccccc5o4)cc1)(C3)C2,159 to 160
24,Cc1nc(Cn2c(=O)sc3cc(F)c([N+](=O)[O-])cc32)no1,192 to 193
